Test results from article PMC9508196 (Scientific Reports, 2022).
No end group written: not given here.

Key:
[1] = tested on: A. baumannii A-8.2–1 (XDR); assay: microbe, parasite or virus in culture; assay type: cell-based, Acinetobacter baumannii; conditions: clinical isolate A-8.2–1 (XDR), blood
From the text: (§1) Ten strains of both Gram-positive and -negative bacteria, including Staphylococcus aureus ATCC 25,923, S. epidermidis ATCC 12,228, Bacillus cereus ATCC 11,778, Listeria monocytogenes 10403S, Salmonella typhimurium ATCC 13,311, Pseudomonas aeruginosa ATCC 27,853, Shigella sonnei ATCC 11,060, A. baumannii ATCC 19,606, Escherichia coli ATCC 25,922 and E. coli O157:H7, were used in this study. Eight clinical isolates of multidrug-resistant (MDR) and extensively drug-resistant (XDR) A. baumannii, isolated from human (blood, sputum, respiratory sample, sterile site sample and urine), were kindly provided by Asst. Prof. Dr. Sakawrat Kanthawong (Faculty of Medicine, Khon Kaen University, Thailand) (Table S1). All bacterial strains, excluding L. monocytogenes 10403S and E. coli, were cultured in tryptic soy broth (TSB). L. monocytogenes was grown in TSB supplemented with 0.6% yeast extract (TSB-YE), and E. coli was cultured in Luria broth (LB). All of bacteria were cultured at 37 °C with continuous shaking at 220 rpm.
(§2) Minimum inhibitory concentration (MIC) of peptides and antibiotics was assessed by a modified version of the broth microdilution method from the Clinical and Laboratory Standards Institute (CLSI) as previously described. In brief, mid-log phase growths of microbial strains were cultured in Müeller-Hinton broth (MHB) with an initial inoculum of 2–8 × 10^5 CFU/mL. Bacteria suspensions were incubated in sterile 96-well plates with test agents at desired concentrations. […] Minimum bactericidal concentration (MBC) determination was performed using a modified version of the colony count assay. In brief, fifty µl of all non-turbid wells from MIC experiments were spread on agar plates. The MBC value was defined as the lowest concentration of peptides with no colony growth on the plate. All assays were performed in triplicate.

[2] = tested on: A. baumannii ATCC 19,606; assay: microbe, parasite or virus in culture; assay type: cell-based, Acinetobacter baumannii; conditions: A. baumannii ATCC 19,606, triplicate; for MIC: broth microdilution (modified CLSI), MHB, 2–8 × 10^5 CFU/mL, 24 h, 37 °C
From the text: as §1, §2

[3] = tested on: A. baumannii B-8.1–1 (MDR); assay: microbe, parasite or virus in culture; assay type: cell-based, Acinetobacter baumannii; conditions: clinical isolate B-8.1–1 (MDR), respiratory tract
From the text: as §1, §2

[4] = tested on: A. baumannii B-8.1–2 (MDR); assay: microbe, parasite or virus in culture; assay type: cell-based, Acinetobacter baumannii; conditions: clinical isolate B-8.1–2 (MDR), respiratory tract
From the text: as §1, §2

[5] = tested on: A. baumannii B-8.2–2 (XDR); assay: microbe, parasite or virus in culture; assay type: cell-based, Acinetobacter baumannii; conditions: clinical isolate B-8.2–2 (XDR), respiratory tract
From the text: as §1, §2

[6] = tested on: A. baumannii C-8.1–2 (MDR); assay: microbe, parasite or virus in culture; assay type: cell-based, Acinetobacter baumannii; conditions: clinical isolate C-8.1–2 (MDR), sterile site
From the text: as §1, §2

[7] = tested on: A. baumannii C-8.2–1 (XDR); assay: microbe, parasite or virus in culture; assay type: cell-based, Acinetobacter baumannii; conditions: clinical isolate C-8.2–1 (XDR), sterile site
From the text: as §1, §2

[8] = tested on: A. baumannii D-10.1–1 (MDR); assay type: cell-based, Acinetobacter baumannii; conditions: clinical isolate D-10.1–1 (MDR), urine
From the text: as §1, §2

[9] = tested on: A. baumannii D-10.1–2 (MDR); assay type: cell-based, Acinetobacter baumannii; conditions: clinical isolate D-10.1–2 (MDR), urine
From the text: as §1, §2

[10] = tested on: A. baumannii isolate A-8.2-1; assay: Disk diffusion test (CLSI), antibiotic susceptibility profile; assay type: cell-based, Acinetobacter baumannii; conditions: CLSI breakpoints
Description: (§3) ^aAntibiotic susceptibility profile of all isolated strains was evaluated by disk diffusion test, using the standard protocol guide of the Clinical and Laboratory Standards Institute (CLSI), and interpreted as S: Susceptible to standard dosing regimen; I: Intermediate; R: Resistant (in accordance with the criteria of CLST breakpoints).

[11] = tested on: A. baumannii isolate B-8.1-1; assay: as above; assay type: cell-based, Acinetobacter baumannii; conditions: CLSI breakpoints
Description: as §3

[12] = tested on: A. baumannii isolate B-8.1-2; assay: as above; assay type: cell-based, Acinetobacter baumannii; conditions: CLSI breakpoints
Description: as §3

[13] = tested on: A. baumannii isolate B-8.2-2; assay: as above; assay type: cell-based, Acinetobacter baumannii; conditions: CLSI breakpoints
Description: as §3

[14] = tested on: A. baumannii isolate C-8.1-2; assay: as above; assay type: cell-based, Acinetobacter baumannii; conditions: CLSI breakpoints
Description: as §3

[15] = tested on: A. baumannii isolate C-8.2-1; assay: as above; assay type: cell-based, Acinetobacter baumannii; conditions: CLSI breakpoints
Description: as §3

[16] = tested on: A. baumannii isolate D-10.1-1; assay: as above; assay type: cell-based, Acinetobacter baumannii; conditions: CLSI breakpoints
Description: as §3

[17] = tested on: A. baumannii isolate D-10.1-2; assay: as above; assay type: cell-based, Acinetobacter baumannii; conditions: CLSI breakpoints
Description: as §3

[18] = tested on: Bacillus cereus ATCC 11,778; assay type: cell-based; conditions: B. cereus ATCC 11,778; broth microdilution, MHB, 24 h, 37 °C, triplicate
From the text: as §1, §2

[19] = tested on: Escherichia coli ATCC 25,922; assay type: cell-based; conditions: E. coli ATCC 25,922; broth microdilution, MHB, 24 h, 37 °C, triplicate
From the text: as §1, §2

[20] = tested on: Escherichia coli O157:H7 MT strain; assay type: cell-based; conditions: E. coli O157:H7 MT strain; broth microdilution, MHB, 24 h, 37 °C, triplicate
From the text: as §1, §2

[21] = tested on: Listeria monocytogenes 10403S; assay type: cell-based; conditions: L. monocytogenes 10403S; broth microdilution, MHB, 24 h, 37 °C, triplicate
From the text: as §1, §2

[22] = tested on: Pseudomonas aeruginosa ATCC 27,853; assay type: cell-based; conditions: P. aeruginosa ATCC 27,853; broth microdilution, MHB, 24 h, 37 °C, triplicate
From the text: as §1, §2

[23] = tested on: Salmonella Typhimurium ATCC 13,311; assay type: cell-based; conditions: S. Typhimurium ATCC 13,311; broth microdilution, MHB, 24 h, 37 °C, triplicate
From the text: as §1, §2

[24] = tested on: Shigella sonnei ATCC 11,060; assay type: cell-based; conditions: S. sonnei ATCC 11,060; broth microdilution, MHB, 24 h, 37 °C, triplicate
From the text: as §1, §2

[25] = tested on: Staphylococcus aureus ATCC 25,923; assay type: cell-based; conditions: S. aureus ATCC 25,923; broth microdilution, MHB, 24 h, 37 °C, triplicate
From the text: as §1, §2

[26] = tested on: Staphylococcus epidermidis ATCC 12,228; assay type: cell-based; conditions: S. epidermidis ATCC 12,228; broth microdilution, MHB, 24 h, 37 °C, triplicate
From the text: as §1, §2

[27] = tested on: human red blood cells (hRBCs); assay: Hemolysis assay; assay type: cell-based; conditions: peptide concentration that caused 10% hemolysis; 2% (v/v) hRBCs in PBS pH 7.4, 0.98 to 250 μg/ml, 1 h, 37 °C, OD 405 nm, triplicate
Description: The hemolytic activity of peptides was determined as the amount of hemoglobin released from lysed human red blood cells (hRBCs) after treatment with peptide. Fresh hRBCs were collected from a healthy volunteer in polycarbonate tubes containing heparin. Then, the collected packed RBCs were washed at least three times (or until the supernatant was clear) with sterile phosphate-buffered saline pH 7.4 (PBS) and centrifuged at 2,000 × g for 5 min. The 2% (v/v) of washed hRBCs in PBS were incubated with serially diluted peptides (0.98 to 250 μg/ml) for 1 h at 37 °C. After centrifugation, the supernatants were monitored for optical density (OD) at 405 nm using a Multiskan FC Microplate Reader[21]. Values for 0% (negative control) and 100% (positive control) lysis were determined by incubating the hRBCs with PBS only (ODBlank) and 0.1% (v/v) Triton X-100 (ODTriton X-100), respectively. The experiments were performed in triplicate. The percent hemolysis was calculated according to the following equation: %Hemolysis=ODSample-ODBlank/ODTriton X-100-ODBlank×100

In the case of Colistin, the MBC [1] is reported as 1.95(1.95) µg/ml, the MIC [1] is reported as 1.95(1.95) µg/ml and the MIC [2] is reported as 0.98(0.98) µg/ml. For the same substance, the MBC ([2]; colony count from non-turbid MIC wells) was 0.98(0.98) µg/ml, the MBC [3] was 1.95(1.95) µg/ml and the MIC [3] was 1.95(1.95) µg/ml. The MBC [4] was 0.98(0.98) µg/ml, the MIC [4] was 0.98(0.98) µg/ml and the MBC [5] was 1.95(1.95) µg/ml. The MIC [5] was 1.95(1.95) µg/ml, the MBC [6] was 1.95(1.95) µg/ml and the MIC [6] was 1.95(1.95) µg/ml. For the same substance, the MBC [7] was 0.98(0.98) µg/ml, the MIC [7] was 0.98(0.98) µg/ml and the MBC [8] was 0.98(0.98) µg/ml. For the same substance, the MIC [8] was 0.98(0.98) µg/ml, the MBC [9] was 1.95(1.95) µg/ml and the MIC [9] was 1.95(1.95) µg/ml. For the same substance, the Antibiotic susceptibility profile [10] was “S”, the Antibiotic susceptibility profile [11] was “S” and the Antibiotic susceptibility profile [12] was “S”. For the same substance, the Antibiotic susceptibility profile [13] was “S”, the Antibiotic susceptibility profile [14] was “S” and the Antibiotic susceptibility profile [15] was “S”. The Antibiotic susceptibility profile [16] was “S” and the Antibiotic susceptibility profile [17] was “S”.
Substance RLFRRVKKVAGKIAKRIWKILRR-NH2 [A3P7] has an MIC [2] of 7.81 µg/mL, an MIC [18] of 7.81 µg/mL and an MIC [19] of 7.81 µg/mL. It also gave an MIC [20] of 15.63 µg/mL, an MIC [21] of 3.91 µg/mL and an MIC [22] of 7.81 µg/mL. For the same substance, the MIC [23] was 7.81 µg/mL, the MIC [24] was 7.81 µg/mL and the MIC [25] was 7.81 µg/mL. The MIC [26] was 7.81 µg/mL and the “MHC, minimum hemolytic concentration” value [27] was 1.95 µg/mL.
